Source: ChEMBL document CHEMBL1126552 (J Med Chem, 1993)
pKi: −log10 of the molar value.

Legend:
[1] = biological target: T1, Adenosine receptor A1 (Rattus norvegicus, UniProt P25099); assay: Binding affinity towards adenosine A1 receptor was determined using radioligand [3H]CHA in whole rat brain membranes at 25 degree C; format: cell membranes
T1 sequence (P25099 whole entry): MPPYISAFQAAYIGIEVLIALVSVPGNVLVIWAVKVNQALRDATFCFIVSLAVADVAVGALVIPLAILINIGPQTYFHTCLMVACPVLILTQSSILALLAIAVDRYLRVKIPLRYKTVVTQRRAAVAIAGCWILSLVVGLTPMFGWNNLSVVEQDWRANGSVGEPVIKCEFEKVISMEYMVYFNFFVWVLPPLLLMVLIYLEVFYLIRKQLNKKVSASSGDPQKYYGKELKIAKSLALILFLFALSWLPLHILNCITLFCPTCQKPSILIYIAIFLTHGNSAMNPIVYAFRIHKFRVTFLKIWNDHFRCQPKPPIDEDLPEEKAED

[2] = biological target: Adenosine A2 receptor (Rattus norvegicus, UniProt P29276+P30543); assay: Binding affinity towards adenosine A2 receptor was determined using radioligand [3H]NECA in rat brain striatum at 25 degree C; format: tissue-based
[3] = biological target: Adenosine receptors; A1 & A2 (Rattus norvegicus) (UniProt P29276+P25099+P30543); assay: Selectivity as ratio of Ki against A2 and A1 receptors; format: protein assay

| pKi [1] | Ki [2] [µM] | Ratio [3] | Structure (SMILES) |
| --- | --- | --- | --- |
| 6.87 | 7.5 | 55 | CCCn1c(=O)c2nc([C@@H](CC)c3ccccc3)[nH]c2n(CCC)c1=O |
| 7.47 | 3.21 | 95 | CCCn1c(=O)c2nc(C(CC)c3ccccc3)[nH]c2n(CCC)c1=O (centres undefined) |
| – | 0.61 | – | CCCC(Cc1ccccc1)c1nc2c(=O)n(CCC)c(=O)n(CCC)c2[nH]1 (centres undefined) |
| – | 12.8 | – | CCCn1c(=O)c2nc(C(CO)Cc3ccccc3)[nH]c2n(CCC)c1=O (centres undefined) |
| – | 4.9 | – | CCCn1c(=O)c2nc(C(C)c3ccccc3)[nH]c2n(CCC)c1=O (centres undefined) |
| – | 1.74 | 18 | CCCn1c(=O)c2nc(CC(C)c3ccccc3)[nH]c2n(CCC)c1=O (centres undefined) |
| – | 12.9 | – | CCCn1c(=O)c2nc([C@@H](C)c3ccccc3)[nH]c2n(CCC)c1=O |
| – | 10.3 | – | CCCn1c(=O)c2nc(C3CCc4ccccc4C3)[nH]c2n(CCC)c1=O (centres undefined) |
| – | 2.72 | – | CCCn1c(=O)c2nc([C@H]3CCC[C@@H]3c3ccccc3)[nH]c2n(CCC)c1=O |
| – | 1.23 | – | CCCn1c(=O)c2nc(C(CC)Cc3ccccc3)[nH]c2n(CCC)c1=O (centres undefined) |
| – | 8.35 | – | CCCn1c(=O)c2nc(C3Cc4ccccc4C3)[nH]c2n(CCC)c1=O |
| – | 3.51 | 153 | CCCn1c(=O)c2nc([C@H](CC)c3ccccc3)[nH]c2n(CCC)c1=O |
| – | 4.22 | – | CCCn1c(=O)c2nc([C@H](C)c3ccccc3)[nH]c2n(CCC)c1=O |
